Earlier results in patent publication US20070275075A1, “Ezetimibe compositions” (priority 2006, published 2007).

Experiments:
[1] = not given; remark: listed apart in the source

O=C1[C@H](CC[C@H](O)c2ccc(F)cc2)[C@@H](c2ccc(O)cc2)N1c1ccc(F)cc1 [Ezetimibe, 1-(4-fluorophenyl)-3(R)-[3-(4-fluorophenyl)-3(S)-hydroxypropyl]-4(S)-(4-hydroxyphenyl)-2-azetidinone]
solubility in ethanol, methanol, and acetone (ethanol, methanol, acetone): freely to very soluble | solubility in water (water): practically insoluble | stability at ambient temperature [1]: stable
